Experimental data as given in publication PMC9954146, “Anti-Leukaemic Activity of Rilpivirine Is Mediated by Aurora A Kinase Inhibition” (Cancers, 2023).

Tests used:
Experiment in all cases: Kinase panel
Type in all cases: biochemical
ErbB4(h) = target: T1, ErbB4(h) (Homo sapiens, UniProt Q15303); conditions: read-out: % Residual Activity
T1 construct: purchased Eurofins (KinaseProfiler)
Description: (§1) Kinome-wide selectivity of rilpivirine was measured using the kinase screening and profiling service of Eurofins Scientific (Le bois l’Evêque 86600. Celle-Lévescault, France) and Ki values were determined using radioisotope-based assays by Reaction Biology Corporation (Malvern, PA, USA). The experimental details of Eurofin Scientific and Reaction Biology services for relevant assays are available at https://www.eurofinsdiscoveryservices.com/services/in-Vitro-assays/kinases/kinase-profiler (accessed on 7 July 2021) and https://www.reactionbiology.com (accessed on 7 July 2021), respectively. Ki values were estimated from the corresponding IC50 values using the Cheng–Prusoff equation [21] and the Km (ATP) of individual kinase was used for IC50 determination.

TLK1(h) = target: T2, TLK1(h) (Homo sapiens, UniProt Q9UKI8); conditions: read-out: % Residual Activity
T2 construct: purchased Eurofins (KinaseProfiler)
Description: as §1

PrKX(h) = target: T3, PrKX(h) (Homo sapiens, UniProt P51817); conditions: read-out: % Residual Activity
T3 construct: purchased Eurofins (KinaseProfiler)
Description: as §1

LKB1(h) = target: T4, LKB1(h) (Homo sapiens, UniProt Q15831); conditions: read-out: % Residual Activity
T4 construct: purchased Eurofins (KinaseProfiler)
Description: as §1

ALK(h) = target: T5, ALK(h) (Homo sapiens, UniProt Q9UM73); conditions: read-out: % Residual Activity
T5 construct: purchased Eurofins (KinaseProfiler)
Description: as §1

Pyk2(h) = target: T6, Pyk2(h) (Homo sapiens, UniProt Q14289); conditions: read-out: % Residual Activity
T6 construct: purchased Eurofins (KinaseProfiler)
Description: as §1

FGFR2(N549H)(h) = target: T7, FGFR2(N549H)(h) (Homo sapiens, UniProt P21802, N549H); conditions: read-out: % Residual Activity
T7 construct: purchased Eurofins (KinaseProfiler)
Description: as §1

CDK2/cyclinA(h) = target: T8, CDK2/cyclinA(h) (Homo sapiens, UniProt P24941); conditions: read-out: % Residual Activity
T8 construct: purchased Eurofins (KinaseProfiler)
Description: as §1

CDK9/cyclin T1(h) = target: T9, CDK9/cyclin T1(h) (Homo sapiens, UniProt P50750); conditions: read-out: % Residual Activity
T9 construct: purchased Eurofins (KinaseProfiler)
Description: as §1

TSSK2(h) = target: T10, TSSK2(h) (Homo sapiens, UniProt Q96PF2); conditions: read-out: % Residual Activity
T10 construct: purchased Eurofins (KinaseProfiler)
Description: as §1

Met(D1246H)(h) = target: T11, Met(D1246H)(h) (Homo sapiens, UniProt P08581, D1228H); conditions: read-out: % Residual Activity
T11 construct: purchased Eurofins (KinaseProfiler)
Description: as §1

ROCK-I(h) = target: T12, ROCK-I(h) (Homo sapiens, UniProt Q13464); conditions: read-out: % Residual Activity
T12 construct: purchased Eurofins (KinaseProfiler)
Description: as §1

Rsk3(h) = target: T13, Rsk3(h) (Homo sapiens, UniProt Q15349); conditions: read-out: % Residual Activity
T13 construct: purchased Eurofins (KinaseProfiler)
Description: as §1

BrSK1(h) = target: T14, BrSK1(h) (Homo sapiens, UniProt Q8TDC3); conditions: read-out: % Residual Activity
T14 construct: purchased Eurofins (KinaseProfiler)
Description: as §1

IR(h), activated = target: T15, IR(h), activated (Homo sapiens, UniProt P06213); conditions: read-out: % Residual Activity
T15 construct: purchased Eurofins (KinaseProfiler)
Description: as §1

Ros(h) = target: T16, Ros(h) (Homo sapiens, UniProt P08922); conditions: read-out: % Residual Activity
T16 construct: purchased Eurofins (KinaseProfiler)
T16 sequence (P08922 28-2347): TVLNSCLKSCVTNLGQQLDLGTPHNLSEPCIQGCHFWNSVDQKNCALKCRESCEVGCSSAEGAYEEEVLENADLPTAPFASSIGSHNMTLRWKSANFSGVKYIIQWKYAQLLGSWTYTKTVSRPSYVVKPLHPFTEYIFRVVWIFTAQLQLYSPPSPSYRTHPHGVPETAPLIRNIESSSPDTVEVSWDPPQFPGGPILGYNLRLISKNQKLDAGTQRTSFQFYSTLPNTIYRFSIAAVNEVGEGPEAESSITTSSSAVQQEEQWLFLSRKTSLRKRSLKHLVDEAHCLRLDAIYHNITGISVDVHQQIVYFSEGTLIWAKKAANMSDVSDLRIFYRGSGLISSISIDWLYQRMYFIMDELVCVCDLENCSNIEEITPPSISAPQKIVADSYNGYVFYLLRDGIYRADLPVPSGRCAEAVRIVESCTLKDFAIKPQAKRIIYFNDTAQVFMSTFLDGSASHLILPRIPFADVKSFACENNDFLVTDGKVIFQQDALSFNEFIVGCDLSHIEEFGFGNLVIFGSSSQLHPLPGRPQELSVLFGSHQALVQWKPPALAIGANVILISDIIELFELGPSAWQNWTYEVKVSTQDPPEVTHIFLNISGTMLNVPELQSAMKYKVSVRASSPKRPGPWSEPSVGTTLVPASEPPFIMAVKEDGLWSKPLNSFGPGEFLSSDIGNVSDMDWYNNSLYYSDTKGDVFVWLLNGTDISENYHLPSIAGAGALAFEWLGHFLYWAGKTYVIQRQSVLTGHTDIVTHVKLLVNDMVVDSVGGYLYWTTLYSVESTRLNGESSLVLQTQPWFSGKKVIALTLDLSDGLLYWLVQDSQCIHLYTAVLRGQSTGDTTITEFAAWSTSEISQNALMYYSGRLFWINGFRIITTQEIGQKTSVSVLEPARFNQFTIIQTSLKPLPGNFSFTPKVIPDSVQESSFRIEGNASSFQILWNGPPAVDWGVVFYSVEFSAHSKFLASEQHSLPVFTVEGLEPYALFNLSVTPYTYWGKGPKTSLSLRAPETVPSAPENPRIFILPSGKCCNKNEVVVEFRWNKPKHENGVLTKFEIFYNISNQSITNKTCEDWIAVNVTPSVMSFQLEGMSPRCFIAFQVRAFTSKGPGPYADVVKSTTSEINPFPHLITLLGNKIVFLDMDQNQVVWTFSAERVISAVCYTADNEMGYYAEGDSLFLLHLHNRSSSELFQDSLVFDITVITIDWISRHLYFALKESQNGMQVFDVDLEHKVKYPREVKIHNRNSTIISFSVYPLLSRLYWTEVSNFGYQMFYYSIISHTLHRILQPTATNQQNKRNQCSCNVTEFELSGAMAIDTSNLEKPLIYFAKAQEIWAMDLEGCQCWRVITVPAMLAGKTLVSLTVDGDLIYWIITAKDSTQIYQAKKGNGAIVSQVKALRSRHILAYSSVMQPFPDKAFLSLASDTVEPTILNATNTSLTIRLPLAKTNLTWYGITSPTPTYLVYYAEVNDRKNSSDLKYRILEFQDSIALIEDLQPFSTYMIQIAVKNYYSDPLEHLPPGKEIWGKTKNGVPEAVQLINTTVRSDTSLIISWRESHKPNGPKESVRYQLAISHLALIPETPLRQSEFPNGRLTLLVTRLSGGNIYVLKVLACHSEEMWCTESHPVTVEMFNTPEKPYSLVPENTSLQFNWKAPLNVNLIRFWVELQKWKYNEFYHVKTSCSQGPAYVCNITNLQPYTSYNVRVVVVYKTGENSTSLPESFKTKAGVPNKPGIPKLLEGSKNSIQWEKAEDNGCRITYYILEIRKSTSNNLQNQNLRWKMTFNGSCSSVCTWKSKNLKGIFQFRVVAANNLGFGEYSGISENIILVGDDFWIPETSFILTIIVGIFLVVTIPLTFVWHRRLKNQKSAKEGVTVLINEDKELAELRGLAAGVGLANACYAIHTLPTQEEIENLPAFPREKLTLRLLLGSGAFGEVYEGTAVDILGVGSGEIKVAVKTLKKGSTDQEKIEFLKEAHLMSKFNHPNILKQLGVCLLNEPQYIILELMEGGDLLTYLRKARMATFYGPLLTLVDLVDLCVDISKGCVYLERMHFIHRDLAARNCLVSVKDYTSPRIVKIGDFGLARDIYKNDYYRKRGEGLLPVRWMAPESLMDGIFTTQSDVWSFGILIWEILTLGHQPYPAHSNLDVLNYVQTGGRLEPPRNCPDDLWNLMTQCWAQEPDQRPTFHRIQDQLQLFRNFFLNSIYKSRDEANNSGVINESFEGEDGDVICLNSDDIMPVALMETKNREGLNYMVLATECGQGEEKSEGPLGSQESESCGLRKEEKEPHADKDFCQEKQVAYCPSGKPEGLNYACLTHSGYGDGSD
Description: as §1

TNIK(h) = target: T17, TNIK(h) (Homo sapiens, UniProt Q9UKE5); conditions: read-out: % Residual Activity
T17 construct: purchased Eurofins (KinaseProfiler)
Description: as §1

EphB3(h) = target: T18, EphB3(h) (Homo sapiens, UniProt P54753); conditions: read-out: % Residual Activity
T18 construct: purchased Eurofins (KinaseProfiler)
Description: as §1

Yes(h) = target: T19, Yes(h) (Homo sapiens, UniProt P07947)
T19 construct: purchased Eurofins (KinaseProfiler)
T19 sequence (P07947 whole entry): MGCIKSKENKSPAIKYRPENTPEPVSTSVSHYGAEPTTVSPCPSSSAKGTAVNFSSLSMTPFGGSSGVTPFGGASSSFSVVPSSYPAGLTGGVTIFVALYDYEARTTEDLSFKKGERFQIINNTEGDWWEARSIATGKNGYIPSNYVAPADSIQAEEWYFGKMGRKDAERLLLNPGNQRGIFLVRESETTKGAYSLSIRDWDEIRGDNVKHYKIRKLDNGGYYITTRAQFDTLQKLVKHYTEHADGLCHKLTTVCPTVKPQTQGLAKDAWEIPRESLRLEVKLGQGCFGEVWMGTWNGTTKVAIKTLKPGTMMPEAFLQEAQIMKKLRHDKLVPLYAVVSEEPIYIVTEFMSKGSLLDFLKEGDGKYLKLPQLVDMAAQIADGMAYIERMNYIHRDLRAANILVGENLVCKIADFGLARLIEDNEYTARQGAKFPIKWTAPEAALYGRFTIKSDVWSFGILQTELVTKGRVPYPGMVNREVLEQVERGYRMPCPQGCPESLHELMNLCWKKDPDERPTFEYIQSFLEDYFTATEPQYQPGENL
Description: as §1

IR(h) = target: T20, IR(h) (Homo sapiens, UniProt P06213); conditions: read-out: % Residual Activity
T20 construct: purchased Eurofins (KinaseProfiler)
Description: as §1

DYRK3(h) = target: T21, DYRK3(h) (Homo sapiens, UniProt O43781); conditions: read-out: % Residual Activity
T21 construct: purchased Eurofins (KinaseProfiler)
Description: as §1

Arg(h) = target: T22, Arg(h) (Homo sapiens, UniProt P42684); conditions: read-out: % Residual Activity
T22 construct: purchased Eurofins (KinaseProfiler)
Description: as §1

Lyn(h) = target: T23, Lyn(h) (Homo sapiens, UniProt P07948)
T23 construct: purchased Eurofins (KinaseProfiler)
T23 sequence (P07948 whole entry): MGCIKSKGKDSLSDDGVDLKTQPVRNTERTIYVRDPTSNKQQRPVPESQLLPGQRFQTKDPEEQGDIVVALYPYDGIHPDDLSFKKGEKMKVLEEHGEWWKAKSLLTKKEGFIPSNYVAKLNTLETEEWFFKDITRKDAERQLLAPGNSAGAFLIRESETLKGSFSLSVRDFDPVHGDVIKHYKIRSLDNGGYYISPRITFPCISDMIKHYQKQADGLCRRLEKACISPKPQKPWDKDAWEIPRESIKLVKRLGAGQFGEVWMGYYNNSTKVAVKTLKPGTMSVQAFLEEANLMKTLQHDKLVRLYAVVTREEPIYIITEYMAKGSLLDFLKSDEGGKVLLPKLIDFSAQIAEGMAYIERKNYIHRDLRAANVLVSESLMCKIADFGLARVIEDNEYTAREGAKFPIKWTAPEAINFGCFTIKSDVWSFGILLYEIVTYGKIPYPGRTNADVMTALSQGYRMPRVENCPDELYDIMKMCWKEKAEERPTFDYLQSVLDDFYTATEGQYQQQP
Description: as §1

EphA1(h) = target: T24, EphA1(h) (Homo sapiens, UniProt P21709); conditions: read-out: % Residual Activity
T24 construct: purchased Eurofins (KinaseProfiler)
Description: as §1

MEKK2(h) = target: T25, MEKK2(h) (Homo sapiens, UniProt Q9Y2U5); conditions: read-out: % Residual Activity
T25 construct: purchased Eurofins (KinaseProfiler)
Description: as §1

CDK18/cyclinY(h) = target: T26, CDK18/cyclinY(h) (Homo sapiens, UniProt Q07002); conditions: read-out: % Residual Activity
T26 construct: purchased Eurofins (KinaseProfiler)
Description: as §1

EGFR(h) = target: T27, EGFR(h) (Homo sapiens, UniProt P00533); conditions: read-out: % Residual Activity
T27 construct: purchased Eurofins (KinaseProfiler)
Description: as §1

Rse(h) = target: T28, Rse(h) (Homo sapiens, UniProt Q06418); conditions: read-out: % Residual Activity
T28 construct: purchased Eurofins (KinaseProfiler)
Description: as §1

CaMKI(h) = target: T29, CaMKI(h) (Homo sapiens, UniProt Q14012); conditions: read-out: % Residual Activity
T29 construct: purchased Eurofins (KinaseProfiler)
T29 sequence (Q14012 whole entry): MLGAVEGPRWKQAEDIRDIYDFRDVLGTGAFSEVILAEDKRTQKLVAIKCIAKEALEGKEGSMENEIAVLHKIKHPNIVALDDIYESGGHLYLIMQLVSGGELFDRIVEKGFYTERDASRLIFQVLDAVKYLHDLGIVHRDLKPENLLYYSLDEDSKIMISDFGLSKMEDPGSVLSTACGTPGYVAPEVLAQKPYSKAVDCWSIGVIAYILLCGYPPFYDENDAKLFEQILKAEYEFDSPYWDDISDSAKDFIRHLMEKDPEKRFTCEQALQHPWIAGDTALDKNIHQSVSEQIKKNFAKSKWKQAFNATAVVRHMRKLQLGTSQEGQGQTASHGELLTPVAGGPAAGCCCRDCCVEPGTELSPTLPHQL
Description: as §1

TrkC(h) = target: T30, TrkC(h) (Homo sapiens, UniProt Q16288); conditions: read-out: % Residual Activity
T30 construct: purchased Eurofins (KinaseProfiler)
Description: as §1

EphA2(h) = target: T31, EphA2(h) (Homo sapiens, UniProt P29317); conditions: read-out: % Residual Activity
T31 construct: purchased Eurofins (KinaseProfiler)
Description: as §1

CaMKK1(h) = target: T32, CaMKK1(h) (Homo sapiens, UniProt Q8N5S9); conditions: read-out: % Residual Activity
T32 construct: purchased Eurofins (KinaseProfiler)
Description: as §1

STK39(h) = target: T33, STK39(h) (Homo sapiens, UniProt Q9UEW8); conditions: read-out: % Residual Activity
T33 construct: purchased Eurofins (KinaseProfiler)
Description: as §1

CDK7/cyclinH/MAT1(h) = target: T34, CDK7/cyclinH/MAT1(h) (Homo sapiens, UniProt P50613); conditions: read-out: % Residual Activity
T34 construct: purchased Eurofins (KinaseProfiler)
Description: as §1

cSRC(h) = target: T35, cSRC(h) (Homo sapiens, UniProt P12931); conditions: read-out: % Residual Activity
T35 construct: purchased Eurofins (KinaseProfiler)
Description: as §1

CDKL1(h) = target: T36, CDKL1(h) (Homo sapiens, UniProt Q00532); conditions: read-out: % Residual Activity
T36 construct: purchased Eurofins (KinaseProfiler)
Description: as §1

STK25(h) = target: T37, STK25(h) (Homo sapiens, UniProt O00506); conditions: read-out: % Residual Activity
T37 construct: purchased Eurofins (KinaseProfiler)
T37 sequence (O00506 whole entry): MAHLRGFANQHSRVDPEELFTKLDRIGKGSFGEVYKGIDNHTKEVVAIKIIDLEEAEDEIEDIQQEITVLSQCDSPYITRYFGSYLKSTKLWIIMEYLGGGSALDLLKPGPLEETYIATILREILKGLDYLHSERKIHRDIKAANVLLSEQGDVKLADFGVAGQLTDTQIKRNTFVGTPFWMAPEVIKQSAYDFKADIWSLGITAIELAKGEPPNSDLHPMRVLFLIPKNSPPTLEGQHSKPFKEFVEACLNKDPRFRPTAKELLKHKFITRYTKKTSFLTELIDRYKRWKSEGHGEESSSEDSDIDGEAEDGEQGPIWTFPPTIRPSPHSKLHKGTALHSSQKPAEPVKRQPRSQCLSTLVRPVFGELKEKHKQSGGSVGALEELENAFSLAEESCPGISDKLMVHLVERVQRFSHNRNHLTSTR
Description: as §1

PKD3(h) = target: T38, PKD3(h) (Homo sapiens, UniProt O94806); conditions: read-out: % Residual Activity
T38 construct: purchased Eurofins (KinaseProfiler)
T38 sequence (O94806 whole entry): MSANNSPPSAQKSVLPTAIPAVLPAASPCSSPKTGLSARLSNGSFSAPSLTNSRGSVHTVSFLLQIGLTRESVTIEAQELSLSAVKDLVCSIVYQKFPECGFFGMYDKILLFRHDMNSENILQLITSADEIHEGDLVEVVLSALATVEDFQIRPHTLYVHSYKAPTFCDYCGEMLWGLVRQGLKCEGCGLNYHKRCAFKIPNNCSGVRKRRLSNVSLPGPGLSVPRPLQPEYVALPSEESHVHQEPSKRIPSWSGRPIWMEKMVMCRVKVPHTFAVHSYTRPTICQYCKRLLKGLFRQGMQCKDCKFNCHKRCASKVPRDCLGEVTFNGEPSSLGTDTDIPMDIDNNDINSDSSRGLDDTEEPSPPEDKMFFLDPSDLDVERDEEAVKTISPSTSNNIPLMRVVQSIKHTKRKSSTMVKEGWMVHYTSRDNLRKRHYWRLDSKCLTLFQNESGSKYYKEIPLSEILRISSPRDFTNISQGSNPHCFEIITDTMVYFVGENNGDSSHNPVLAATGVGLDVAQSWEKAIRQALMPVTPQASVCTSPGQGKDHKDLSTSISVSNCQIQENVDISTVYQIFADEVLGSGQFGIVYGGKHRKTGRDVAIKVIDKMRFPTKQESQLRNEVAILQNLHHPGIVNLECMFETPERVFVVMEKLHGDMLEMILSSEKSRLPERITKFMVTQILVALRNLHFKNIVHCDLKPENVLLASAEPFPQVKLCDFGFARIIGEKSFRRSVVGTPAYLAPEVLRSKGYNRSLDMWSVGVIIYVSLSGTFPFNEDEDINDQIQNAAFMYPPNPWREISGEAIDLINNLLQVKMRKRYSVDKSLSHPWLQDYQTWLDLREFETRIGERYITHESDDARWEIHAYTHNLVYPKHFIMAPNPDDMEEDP
Description: as §1

Cc1cc(/C=C/C#N)cc(C)c1Nc1ccnc(Nc2ccc(C#N)cc2)n1 [rilpivirine, (E)-4-((4-((4-(2-cyanoethenyl)-2,6-dimethylphenyl)amino)pyrimidin-2-yl)amino)benzonitrile] was tested, and the remaining activity at 1 µM (ErbB4(h)) was 88%, the remaining activity at 1 µM (TLK1(h)) was 95% and the remaining activity at 1 µM (PrKX(h)) was 97%. The remaining activity at 1 µM (LKB1(h)) was 87%, the remaining activity at 1 µM (ALK(h)) was 80% and the remaining activity at 1 µM (Pyk2(h)) was 81%. The remaining activity at 1 µM (FGFR2(N549H)(h)) was 91%, the remaining activity at 1 µM (CDK2/cyclinA(h)) was 87% and the remaining activity at 1 µM (CDK9/cyclin T1(h)) was 81%. It also gave a remaining activity at 1 µM (TSSK2(h)) of 91%, a remaining activity at 1 µM (Met(D1246H)(h)) of 95% and a remaining activity at 1 µM (ROCK-I(h)) of 95%. The remaining activity at 1 µM (Rsk3(h)) was 86%, the remaining activity at 1 µM (BrSK1(h)) was 84% and the remaining activity at 1 µM (IR(h), activated) was 85%. The remaining activity at 1 µM (Ros(h)) was 77%, the remaining activity at 1 µM (TNIK(h)) was 50% and the remaining activity at 1 µM (EphB3(h)) was 88%. For the same compound, the inhibition at 1 µM (Yes(h); YES, read-out: inhibitory activity) was over 70%, the remaining activity at 1 µM (Yes(h); read-out: % Residual Activity) was 17% and the remaining activity at 1 µM (IR(h)) was 111%. The remaining activity at 1 µM (DYRK3(h)) was 84%, the remaining activity at 1 µM (Arg(h)) was 70% and the inhibition at 1 µM (Lyn(h); LYN, read-out: inhibitory activity) was over 70%. For the same compound, the remaining activity at 1 µM (Lyn(h); read-out: % Residual Activity) was 23%, the remaining activity at 1 µM (EphA1(h)) was 56% and the remaining activity at 1 µM (MEKK2(h)) was 104%. For the same compound, the remaining activity at 1 µM (CDK18/cyclinY(h)) was 93%, the remaining activity at 1 µM (EGFR(h)) was 111% and the remaining activity at 1 µM (Rse(h)) was 66%. For the same compound, the remaining activity at 1 µM (CaMKI(h)) was 92%, the remaining activity at 1 µM (TrkC(h)) was 91% and the remaining activity at 1 µM (EphA2(h)) was 72%. For the same compound, the remaining activity at 1 µM (CaMKK1(h)) was 90%, the remaining activity at 1 µM (STK39(h)) was 95% and the remaining activity at 1 µM (CDK7/cyclinH/MAT1(h)) was 78%. For the same compound, the remaining activity at 1 µM (cSRC(h)) was 53%, the remaining activity at 1 µM (CDKL1(h)) was 75% and the remaining activity at 1 µM (STK25(h)) was 95%. For the same compound, the remaining activity at 1 µM (PKD3(h)) was 76%.
